Experimental data: BindingDB's records for doi:10.1016/s0960-894x(98)00596-4 (University of Connecticut, 1999)
pKi: −log10 of the molar value.

What was measured:
[1] = Inhibitory activity against alpha-L-fucosidase in bovine kidney; Competitive Inhibition type
[2] = Inhibitory activity against alpha-L-fucosidase in bovine kidney at PH of 6.5; Mixed Inhibition type; details: pH 6.5
[3] = Inhibitory activity against alpha-L-fucosidase in bovine epididymis at PH of 6.5; Competitive Inhibition type; details: pH 6.5

Question: With `O[C@H]1[C@H](O)[C@H](O)O[C@@H](CS)[C@H]1O` [(2R,3S,4R,5S,6R)-6-Mercaptomethyl-tetrahydro-pyran-2,3,4,5-tetraol] as the compound, how does the pKi [1] read?
Answer: 4.38

Question: With `CC(=O)NCSC1OC(C)C(O)C(O)C1O` (stereo not drawn) [N-(3,4,5-Trihydroxy-6-methyl-tetrahydro-pyran-2-ylsulfanylmethyl)-acetamide] as the compound, how does the pKi [2] read?
Answer: 5.34

Question: What about the pKi [3] of the same compound?
Answer: 5.25
